Test results: patent US20230257351A1, “SUBSTITUTED N-[…] HAVING P2X4 RECEPTOR ANTAGONISTIC ACTIVITY” (Bayer Aktiengesellschaft, priority 2020, published 2023)

Experiments:
human P2X4 = target: T1, human P2X4 (Homo sapiens, UniProt Q99571); assay: Human P2X4 HEK Cell FLIPR Assay; format: cell-based; conditions: HEK293 stably expressing human P2X4, agonist Bz-ATP 3 μM (EC80); for IC50: read-out: Human P2X4 HEK Cells (FLIPR Assay) avg IC50
T1 construct: expressed in transfected cells
T1 sequence (Q99571 1-388): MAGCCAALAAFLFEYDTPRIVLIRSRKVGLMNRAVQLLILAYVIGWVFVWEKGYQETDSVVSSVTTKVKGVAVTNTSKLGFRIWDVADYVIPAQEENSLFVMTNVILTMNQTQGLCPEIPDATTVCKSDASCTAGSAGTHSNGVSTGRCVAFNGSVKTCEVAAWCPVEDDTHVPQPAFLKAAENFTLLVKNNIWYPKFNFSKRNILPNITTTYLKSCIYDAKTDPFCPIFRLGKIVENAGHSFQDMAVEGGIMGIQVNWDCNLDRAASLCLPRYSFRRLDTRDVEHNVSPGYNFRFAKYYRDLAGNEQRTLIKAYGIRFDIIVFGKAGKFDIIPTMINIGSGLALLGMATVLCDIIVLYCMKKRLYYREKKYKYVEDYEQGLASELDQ
Procedure, shortened: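 Compounds were preincubated 30 min at room temperature on Fluo8-AM-loaded HEK293 cells stably expressing human P2X4. The response was the calcium fluorescence rise on Bz-ATP addition.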

rat P2X4 = target: T2, rat P2X4 (Rattus norvegicus, UniProt P51577); assay: FLIPR Method for Rat P2X4 1321N1 Astrocytoma Cells; format: cell-based; conditions: 1321N1 stably expressing rat P2X4; agonist MgATP 5 μM (EC80)
T2 construct: expressed in transfected cells
T2 sequence (P51577 1-388): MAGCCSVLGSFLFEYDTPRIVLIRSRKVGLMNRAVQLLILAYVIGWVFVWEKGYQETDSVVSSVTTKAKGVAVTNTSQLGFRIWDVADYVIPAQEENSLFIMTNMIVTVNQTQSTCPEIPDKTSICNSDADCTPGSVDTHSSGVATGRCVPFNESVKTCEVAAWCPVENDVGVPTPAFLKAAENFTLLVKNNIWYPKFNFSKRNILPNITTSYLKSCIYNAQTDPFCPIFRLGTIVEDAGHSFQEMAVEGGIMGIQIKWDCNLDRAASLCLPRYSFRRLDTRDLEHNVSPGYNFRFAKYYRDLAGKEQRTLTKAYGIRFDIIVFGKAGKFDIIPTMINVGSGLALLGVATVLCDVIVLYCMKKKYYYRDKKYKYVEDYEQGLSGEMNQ
Procedure, shortened: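 1321N1 cells stably expressing rat P2X4, Fluo8-AM loaded; compounds (25 μM to 1 nM final, ten concentrations) preincubated 30 min at room temperature, then MgATP added at 5 μM (EC80). Calcium fluorescence read on FLIPR before and after agonist; triplicate data normalized to agonist control, four-parameter fit gives IC50.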

Human P2X4 HEK Cells (FLIPR Assay) avg Efficacy (human P2X4) [%] | IC50 (human P2X4) [nM] | IC50 (rat P2X4) [nM] | Rat P2X4 1321N1 Astrocytoma Cells (FLIPR Assay) avg Efficacy (rat P2X4) [%] | SMILES
94 | 604 | 159 | 97 | CC(=O)N(c1ccc(F)c(F)c1)c1cc(NC(=O)Cc2ccc(Cl)cc2Cl)ccn1 [Example 67, N-{4-[2-(2,4-dichlorophenyl)acetamido]pyridin-2-yl}-N-(3,4-difluorophenyl)acetamide]
94 | 816 | 228 | 100 | CC(=O)N(c1ccc(F)c(F)c1)c1cc(NC(=O)Cc2ccc([N+](=O)[O-])cc2Cl)ccn1 [Example 69, N-{4-[2-(2-chloro-4-nitrophenyl)acetamido]pyridin-2-yl}-N-(3,4-difluorophenyl)acetamide]
88 | 714 | 714 | 100 | COc1ccc(CC(=O)Nc2ccnc(N(C(C)=O)c3ccc(F)c(F)c3)c2)c(Cl)c1 [Example 70, N-{4-[2-(2-chloro-4-methoxyphenyl)acetamido]pyridin-2-yl}-N-(3,4-difluorophenyl)acetamide]
96 | 222 | 165 | 90 | CC(=O)N(c1ccc(F)c(F)c1)c1cc(NC(=O)Cc2cccc(F)c2Cl)ccn1 [Example 71, N-{4-[2-(2-chloro-3-fluorophenyl)acetamido]pyridin-2-yl}-N-(3,4-difluorophenyl)acetamide]
97 | 355 | 58.5 | 89 | CC(=O)N(c1ccc(F)c(F)c1)c1cc(NC(=O)Cc2c(Cl)cccc2Cl)ccn1 [Example 72, N-{4-[2-(2,6-dichlorophenyl)acetamido]pyridin-2-yl}-N-(3,4-difluorophenyl)acetamide]
97 | 428 | 67.1 | 93 | CC(=O)N(c1ccc(F)c(F)c1)c1cc(NC(=O)Cc2c(Cl)cc(F)cc2Cl)ccn1 [Example 73, N-{4-[2-(2,6-dichloro-4-fluorophenyl)acetamido]pyridin-2-yl}-N-(3,4-difluorophenyl)acetamide]
89 | 585 | 99.1 | 97 | CC(=O)N(c1ccc(F)c(F)c1)c1cc(NC(=O)Cc2c(Cl)cc(C)cc2Cl)ccn1 [Example 74, N-{4-[2-(2,6-dichloro-4-methylphenyl)acetamido]pyridin-2-yl}-N-(3,4-difluorophenyl)acetamide]
97 | 397 | 667 | 99 | CC(=O)N(c1ccc(F)c(F)c1)c1cc(NC(=O)Cc2ccccc2OC(F)(F)F)ccn1 [Example 76, N-(3,4-difluorophenyl)-N-(4-{2-[2-(trifluoromethoxy)phenyl]acetamido}pyridin-2-yl)acetamide]
94 | 354 | 993 | 84 | COc1ccc(N(C(C)=O)c2cc(NC(=O)Cc3ccccc3Cl)ccn2)cc1F [Example 77, N-{4-[2-(2-chlorophenyl)acetamido]pyridin-2-yl}-N-(3-fluoro-4-methoxyphenyl)acetamide]
97 | 399 | 1110 | 96 | COc1ccc(N(C(C)=O)c2cc(NC(=O)Cc3cccc(F)c3Cl)ccn2)cc1F [Example 79, N-{4-[2-(2-chloro-3-fluorophenyl)acetamido]pyridin-2-yl}-N-(3-fluoro-4-methoxyphenyl)acetamide]
99 | 451 | 338 | 97 | COc1ccc(N(C(C)=O)c2cc(NC(=O)Cc3c(Cl)cccc3Cl)ccn2)cc1F [Example 80, N-{4-[2-(2,6-dichlorophenyl)acetamido]pyridin-2-yl}-N-(3-fluoro-4-methoxyphenyl)acetamide]
97 | 350 | 143 | 90 | CC(=O)N(c1cc(F)cc(F)c1)c1cc(NC(=O)Cc2cccc(C)c2C)ccn1 [Example 83, N-(3,5-difluorophenyl)-N-{4-[2-(2,3-dimethylphenyl)acetamido]pyridin-2-yl}acetamide]
100 | 314 | 1030 | 100 | CC(=O)N(c1cc(F)cc(F)c1)c1cc(NC(=O)Cc2ccccc2C(F)(F)F)ccn1 [Example 84, N-(3,5-difluorophenyl)-N-(4-{2-[2-(trifluoromethyl)phenyl]acetamido}pyridin-2-yl)acetamide]
98 | 251 | 229 | 97 | CC(=O)N(c1cc(F)cc(F)c1)c1cc(NC(=O)Cc2c(C)cccc2C)ccn1 [Example 85, N-(3,5-difluorophenyl)-N-{4-[2-(2,6-dimethylphenyl)acetamido]pyridin-2-yl}acetamide]
98 | 196 | 393 | 98 | CC(=O)N(c1cc(F)cc(F)c1)c1cc(NC(=O)Cc2ccccc2Cl)ccn1 [Example 86, N-{4-[2-(2-chlorophenyl)acetamido]pyridin-2-yl}-N-(3,5-difluorophenyl)acetamide]
98 | 313 | 983 | 94 | CC(=O)N(c1cc(F)cc(F)c1)c1cc(NC(=O)Cc2ccc(F)cc2Cl)ccn1 [Example 87, N-{4-[2-(2-chloro-4-fluorophenyl)acetamido]pyridin-2-yl}-N-(3,5-difluorophenyl)acetamide]
97 | 198 | 451 | 100 | CC(=O)N(c1cc(F)cc(F)c1)c1cc(NC(=O)Cc2cccc(F)c2Cl)ccn1 [Example 88, N-{4-[2-(2-chloro-3-fluorophenyl)acetamido]pyridin-2-yl}-N-(3,5-difluorophenyl)acetamide]
99 | 169 | 103 | 98 | CC(=O)N(c1cc(F)cc(F)c1)c1cc(NC(=O)Cc2c(Cl)cccc2Cl)ccn1 [Example 89, N-{4-[2-(2,6-dichlorophenyl)acetamido]pyridin-2-yl}-N-(3,5-difluorophenyl)acetamide]
98 | 272 | 110 | 97 | CC(=O)N(c1cc(F)cc(F)c1)c1cc(NC(=O)Cc2c(Cl)cc(F)cc2Cl)ccn1 [Example 90, N-{4-[2-(2,6-dichloro-4-fluorophenyl)acetamido]pyridin-2-yl}-N-(3,5-difluorophenyl)acetamide]
98 | 345 | 1630 | 100 | CC(=O)N(c1cc(F)cc(F)c1)c1cc(NC(=O)Cc2ccccc2OC(F)(F)F)ccn1 [Example 91, N-(3,5-difluorophenyl)-N-(4-{2-[2-(trifluoromethoxy)phenyl]acetamido}pyridin-2-yl)acetamide]
98 | 408 | 965 | 98 | COc1cccc(N(C(C)=O)c2cc(NC(=O)Cc3ccccc3Cl)ccn2)c1 [Example 100, N-{4-[2-(2-chlorophenyl)acetamido]pyridin-2-yl}-N-(3-methoxyphenyl)acetamide]
